The test system of test [1] is platelet-poor plasma (PPP). The test is described as follows: In vitro aPTT clotting time in platelet-poor plasma. More on the design: species or system human. On the procedure: Figure 2 Effects of CSL on clotting time. (A) Platelet-poor plasma (PPP) was incubated with the indicated concentrations of CSL or rivaroxaban (Riva) for 15 min. (B) One hour after administering DMSO, CSL, or Riva, blood was collected from the mice, and PPP was obtained. Then, in vitro aPTT (A) or ex vivo aPTT was measured, as described in the Methods sections. Data are shown as mean values ± SD of five independent experiments. * p < 0.05 vs. D. D = 0.2% DMSO, used as the vehicle control.
Ten fasting healthy volunteers (aged 24–28; six women and four men) who were free of allergies, cardiovascular problems, carbohydrate, or lipid metabolic abnormalities and had not taken any morning medication had their blood samples taken. None of our subjects used addictive drugs or antioxidant food supplements, and their diets were well balanced. The plasma from the blood samples was immediately spun down (1300× g for 15 min) to separate it from sodium citrate (10.9 mM) and pooled for the following investigations. Next, human blood samples were spun down at room temperature to rapidly separate the PRP. The PRP concentration was adjusted to 1 × 10^9 platelets/mL using a hemocytometer. After being rinsed once in HEPES buffer containing 1 mM CaCl2, the PRP pellet was maintained at room temperature for an additional 30 min. Then, 10 mL of the platelet samples were utilized to measure each clotting time point. The IRB of Kyungpook National University Hospital (Daegu, Republic of Korea) approved this study protocol (KNUH 2012-01-010).
Plasma was taken by centrifuging blood (2000× g for 10 min) at room temperature following dimethyl sulfoxide (DMSO) or CSL administration for 1 h to assess PT and aPTT using a thrombotimer (Behnk Elektronik, Norderstedt, Germany). Micronized silica was utilized as an activator for the aPTT test. Briefly, 100 μL of platelet-poor plasma (PPP) and 100 μL of aPTT assay reagent were combined for 1 min at 37 °C, 100 µL of CaCl2 (20 mM) was added, and the clotting times were noted. […] Next, the clotting time was measured.

In another test the test system is platelets. Nature of the test: P-selectin and PAC-1 expression, flow cytometry. Format: cell-based, human. The settings on record: platelets activated by ADP or U46619; CSL 10 or 20 μM. How it is done:
Figure 7 Effects of CSL on the expression of P-selectin and PAC-1 and the production of NO and ET-1. (A) Rinsed platelets were incubated with DMSO or CSL (10 or 20 μM) for 3 min at 37 °C, and stimulation of ADP ((A,C) 10 μM) or U46619 ((B,D) 6 μM) was given for 6 min. The expressions of P-selectin and PAC-1 (A,B) and the production of NO and ET-1 (C,D) were measured as described in the Methods section. Data are shown as mean values ± SD of five independent experiments. * p < 0.05 vs. (A,C) ADP or (B,D) U46619 alone. D = 0.2% DMSO, used as the vehicle control.
PAC-1 and P-selectin expression levels were assessed by modifying accepted techniques. Briefly, 20 μL of DMSO or CSL (10 to 20 μM) were incubated with 0.5 mL of cleaned platelets (2 × 10^8 platelets/mL) for 3 min. The platelet suspension was refrigerated at 4 °C after stimulation with ADP (10 μM) or U46619 (6 μM) for 6 min at 37 °C. Subsequently, 50 μL of the sample was mixed with activation-specific anti-PAC-1 and anti-CD61-PE in saturated concentrations, and the mixture was then incubated for 25 min in the dark to determine the expression of PAC-1. […] Finally, 5000 events were evaluated for each sample. The mean fluorescence intensities from each channel were expressed using BD Accuri C6 software (BD Biosciences, San Diego, CA, USA). […]
For orientation: A flow cytometer gives signals particle by particle.

The next test concerns human platelets. Nature of the test: Intracellular Ca2+ mobilization (Fura-2). Format: cell-based. The settings on record: ADP 10 μM or U46619 6 μM; extracellular Ca2+ 1 mM. How it is done: Figure 6 Effects of CSL on activation of protein kinase CPKC activation and mobilization of intracellular calcium. (A) Rinsed platelets were incubated with DMSO or CSL (10 or 20 μM) for 10 min at 37 °C, and stimulation of ADP (10 μM, left) or U46619 (6 μM, right) was given for 1 min. The phosphorylation level of MARCKS in the platelets was determined with western blotting. Representative images from each group are shown (n = 3). Densitometric intensities of each signaling pathway component normalized to β-actin or total protein. (B,C) Human platelets preloaded with Fura-2 were incubated with DMSO (D) or CSL with extracellular Ca^2+ (1 mM) for 10 min at 37 °C, and ADP ((B) 10 μM) or U46619 ((C) 6 μM) stimulation was given to induce an increase in [Ca^2+]i. Data are shown as mean values ± SD of five independent experiments. * p < 0.05 vs. ADP (A,B) or U46619 (A,C) alone. D = 0.2% DMSO, used as the vehicle control.
The amount of intracellular Ca^2+ ([Ca^2+]i) of platelets was measured as previously described. […] Grynkiewicz et al. proposed an equation for calculating the [Ca^2+]i by measuring the intensity of fluorescence signals (excitation/emission wavelengths: 339/500 nm) obtained from the platelets.
For orientation: Calcium assays in cells follow changes in intracellular calcium, usually with a dye or a luminescent sensor.

1 compound from PMC10145360, “Antiplatelet Aggregation Properties of Cirsilineol: A Novel Inhibitor of Blood Coagulation Factor Xa” (Pharmaceuticals, 2023) can be followed below.

Take `COc1cc(-c2cc(=O)c3c(O)c(OC)c(OC)cc3o2)ccc1O` [CSL, 4,5-dihydroxy-3,6,7-trimethoxyflavone]: the “concentration that doubled the clotting time (in vitro aPTT)” value in test [1] (PPP incubated 15 min) stood at 7.23 µM. Besides, the aPTT in vitro entry in test [1] (doses between 5 and 20 M) is given as “considerably slowed the aPTT”. The “expression of P-selectin and PAC-1” value in the test on platelets is “reduced the expression”. Further, the “ADP- and U46619-induced elevations in [Ca2+]i” value in the test on human platelets is listed as “inhibited”.
